Experimental data reported in PMC12074795, “Synthesis and biological evaluation of esterified anti-inflammatory drugs with ethylene glycol linkers: cytotoxicity, anti-inflammatory and antioxidant properties” (Royal Society Open Science, 2025).
Where two headings read alike, the source gives them in different places.

Tests used:
[1] = system: nitric oxide production by macrophages activated with Saccharomyces cerevisiae; test: Inhibition of nitric oxide production by stimulated macrophages (Griess); type: cell-based, mouse
Procedure: Second, the anti-inflammatory activity of these compounds at a maximum concentration of 0.22 mM was evaluated by assessing their ability to inhibit the synthesis of NO (figure 2).
Peritoneal macrophages were isolated from four eight-week-old, 25 g Wistar mice by intraperitoneal injection of 0.5 ml of 2% starch solution (inflammatory agent) to stimulate their production. Four days later, the animals were sacrificed, and 5 ml of phosphate buffered saline (PBS) buffer (0.1 M, pH 7.4) was injected into their peritoneal cavity with a syringe. After massage of the peritoneal cavity, the injected buffer was slowly aspirated through a small abdominal incision. The resulting solution containing macrophages was transferred to 15 ml Falcon tubes and kept in ice. The fluid obtained was then centrifuged (1620 g, 4°C and 10 min), and the supernatant was removed. The erythrocytes were removed by osmotic shock. The cells were suspended in 1 ml hypotonic 0.05 M NaCl solution for 1 min. Isotonicity was then restored by adding 1 ml of 0.25 M NaCl. The mixture was centrifuged (1620 g, 4°C and 10 min) and the resulting pellet was suspended in 2 ml of Dulbecco's modified eagle medium (DMEM) (containing 0.2% streptomycin and penicillin, 0.4 g l^−1 bovine serum albumin and 3.7 g l^−1 NaHCO3 in PBS and filtered with 0.22 µm Millipore filters).
In the 96-well plate, 150 µl of a cell suspension (10^4 cells per well) were distributed in different wells. In the test and positive control wells, 50 µl of Saccharomycces cerevisiae (250 µg ml^–1) was added to stimulate the production of pro-inflammatory cytokines. Meanwhile 50 µl of DMEM was added in the negative control wells. The microplate was incubated at 37°C (5% CO2) for 1 h, then 50 µl of solution of compounds or baicalin at different concentrations (0.241 × 10^–3, 2.23 × 10^–3, 22.4 × 10^–3, 220 × 10^–3 and 2410 × 10^–3 mM) were added to the test wells and 50 µl DMEM to the positive (cells activated with Saccharomyces cerevisiae) and negative (inactivated cells) control wells. After 3 h of incubation at 37°C (5% CO2), the cell supernatants were used for NO [41].
A total of 100 µl of the previously obtained cell supernatants were mixed with 100 µl of Griess reagent (1% sulphanylamide, 0.1% naphthyl ethylenediamine dihydrochloride in 2.5% v/v phosphoric acid). The mixture was incubated for 10 min at room temperature and the absorbance is read at 550 nm. The amount of nitrite was measured using the standard sodium […] curve. The percentage inhibition of nitric oxide synthesis was calculated using the following formula:
%inhibition=[(ODcontrol−ODassay/ODcontrol]×100).

[2] = Cell viability (MTT) assay on macrophages in primary culture; type: cell-based; conditions: Wistar, mouse, peritoneal macrophages in primary culture, concentrations 2.41 × 10^–4 to 2.41 mM, read-out: half cytotoxic concentration (IC50)
Procedure: The inflammatory response is part of the body’s first line of defence against a pathogen. Macrophages are one of the most studied inflammatory cells due to their high involvement in this inflammatory process. The recognition of an antigenic motif by a toll-like receptor on macrophages leads to a cascade of molecular signalling to the synthesis of pro-inflammatory mediators such as NO to eliminate the pathogen. First, the effect of the compounds on cell viability was assessed by measuring the cytotoxicity of the compounds in cell culture using the MTT assay at concentrations ranging from 2.41 × 10^–4 to 2.41 mM (figure 1).
Peritoneal macrophages were isolated from four eight-week-old, 25 g Wistar mice by intraperitoneal injection of 0.5 ml of 2% starch solution (inflammatory agent) to stimulate their production. Four days later, the animals were sacrificed, and 5 ml of phosphate buffered saline (PBS) buffer (0.1 M, pH 7.4) was injected into their peritoneal cavity with a syringe. […]
The effect of the solutions of synthetic compounds on the viability of macrophages in primary culture was determined by using the MTT as previously described in the literature. […] Finally, the absorbance of the purple solution was read at 630 nm against the acidified isopropanol solution. The percentage of cell viability was calculated using the following formula: […]

[3] = Mus musculus, Macrophage, 3 h, peritoneal macrophages activated with Saccharomyces cerevisiae, 3 h incubation, Griess reagent, read-out: IC50 of NO inhibition assay
[4] = Mus musculus, Macrophage, classified according to the IC50 values of table 1, read-out: anti-inflammatory activity (class by IC50 of NO inhibition)
[5] = peritoneal macrophages activated with Saccharomyces cerevisiae, 3 h incubation, Griess reagent, read-out: IC50 of NO inhibition assay

Row | SMILES | IC50 [1, 3] [µM] | IC50 [1, 4] [µM] | IC50 [1, 5] [µM] | IC50 at 3 h [2] [µM]
1 | O=C(/C=C/c1ccccc1)OCCOC(=O)c1ccccc1O [Compound 12, (E)-2-(cinnamoyloxy)ethyl 2-hydroxybenzoate] | 170 | – | – | –
2 | O=C(OCCO)c1ccccc1O [Compound 7, 2-hydroxyethyl 2-hydroxybenzoate] | 50 | – | – | –
3 | CC(C)Cc1ccc(C(C)C(=O)OCCO)cc1 (centres unmarked) [Compound 3, 2-hydroxyethyl 2-(4-isobutylphenyl)propanoate] | – | < 1000 | – | –
4 | CCCCCCCCCCCC(=O)OCCOC(=O)C(C)c1ccc(CC(C)C)cc1 (centres unmarked) [Compound 5a, 2-((2-(4-isobutylphenyl)propanoyl)oxy)ethyl dodecanoate] | ≤ 50 | < 1000 | 50 | –
5 | CC(C)Cc1ccc(C(=O)OCCOC(=O)C(C)c2ccc(CC(C)C)cc2)cc1 (centres unmarked) [Compound 2, 2-((2-(4-isobutylphenyl)propanoyl)oxy)ethyl 4-isobutylbenzoate] | 570 | < 1000 | – | 4900
6 | O=C(OCCOC(=O)c1ccccc1O)c1ccccc1O [Compound 13, Ethane-1,2-diyl bis(2-hydroxybenzoate)] | 900 | – | – | –
7 | O=C(O)/C=C/c1ccccc1 [Compound 11, cinnamic acid, reference compound] | 340 | – | – | –
8 | CC(C)Cc1ccc(C(C)C(=O)OCCOC(=O)C=Cc2ccccc2)cc1 (centres unmarked) [Compound 14, 2-((2-(4-isobutylphenyl)propanoyl)oxy)ethyl cinnamate] | ≤ 50 | < 1000 | 50 | –
9 | CCCCCCCCCCCC(=O)OCCOC(=O)c1ccccc1O [DEW4a] | > 1000 | – | 1360 | –
10 | CC(C)Cc1ccc(C(C)C(=O)O)cc1 (centres unmarked) [Compound 1, ibuprofen, reference compound] | 330 | – | – | –
